Test results reported in the CATMoS acute toxicity set (Mansouri et al. 2021).

Test: GHS categories as the set defines them, by LD50: 1 up to 5, 2 up to 50, 3 up to 300, 4 up to 2000, 5 above 2000 mg/kg
Conditions: rat; in vivo; po
Source text: […]The data set underlying the modeling effort for this project was initially compiled by NICEATM and U.S. EPA’s CCTE. Briefly, LD50 data were collected from rat acute oral systemic toxicity tests, including limit tests, ranges/confidence intervals, and discrete LD50 values. The full data set included 21,200 LD50 entries for 15,688 substances. […] Data were reviewed to ensure that LD50 values with obvious errors in the extracted data such as unit conversion errors (e.g., comma and decimal separator misplacements) were either fixed or removed. After this review, 16,209 LD50 values remained. Many of the chemicals represented had multiple LD50 entries, requiring that a single representative value per Chemical Abstracts Service Registry Number (CASRN) identifier be defined to facilitate modeling efforts. Based on ATWG feedback and to define the representative LD50 as a protective value while accounting for the distribution across multiple LD50s, the median of the lowest quartile was computed using only discrete LD50 values (omitting limit test data and range and confidence interval data). A detailed summary of the data compilation is available online on the NICEATM webpage dedicated to the collaborative modeling project (NTP 2020).
[…][…] For categorical designations, limit test and range/confidence interval LD50 data were integrated wherever possible. As such, the number of chemicals with end point values/calls varies across the modeling end points (Table 3) based on whether chemicals had representative LD50 values and/or other data. If a chemical had both, the representative value was used to determine categorical calls rather than limit test data. Some data were useable only for certain end points and categories depending on the thresholds. For example, ranges that spanned multiple hazard categories were considered only for the binary (very toxic/nontoxic) end points and omitted from rendering a determination for hazard category assignment.
[…]The final data set comprising 11,992 chemicals was split into training and evaluation sets […], respectively. This process was performed semirandomly by ordering chemicals based on the five end points (categorical and continuous LD50 values) and partitioning every fourth record into the evaluation set accordingly. This approach was taken to ensure an equivalent distribution of the LD50 values and the different hazard categories between the training and the evaluation sets without supervised sampling of the chemicals based on structures (Figure 1A). The sources of the chemical structures were also kept equivalent between the two sets, with chemical structures obtained from DSSTox, being the highest quality, representing over 75% of each set (Figure 1B).

Cc1cc(C(=O)NCCc2ccc(S(=O)(=O)NC(=O)NN3CCCCCC3)cc2)no1
GHS category: 5

C=CC(C)CCC=C(C)C (stereo unspecified)
GHS category: 5

CCCCCCCCCCCCC1=C(OC(C)=O)C(=O)c2ccccc2C1=O
GHS category: 5

CC(C)(CCn1c(=O)[nH]c2ccccc21)NCC(O)COc1cccc2ccccc12 (stereo unspecified)
GHS category: 5

CCCCCCCCC(=O)OCC
GHS category: 5

CCCCOC(=O)c1ccc(C(=O)OCCCC)cc1
GHS category: 5

CC(C)CCCCCCCCCCCCCC=CC1CC(=O)OC1=O (stereo unspecified)
GHS category: 5

CN(C(=O)Cl)c1nnc(C(C)(C)C)s1
GHS category: 4

C=C(C)C(=O)NC(C)C
GHS category: 5

O=C1c2ccccc2C(c2ccc(O)cc2)(c2ccc(O)cc2)N1c1ccccc1
GHS category: 5

CC1CC(OC(=O)COc2ccc(Cl)cc2)CC(C)(C)C1 (stereo unspecified)
GHS category: 5

O=C1NC(=O)C(N=NC2C(=O)NC(=O)NC2=O)C(=O)N1
GHS category: 5

CNC(=O)C(C#N)=c1[nH]c(=C2C(=O)NC(=O)NC2=O)c2ccccc12
GHS category: 5

O=C1OCC[C@@H]1O
GHS category: 5

O=CC1=C(C(Cl)(Cl)Cl)C(Cl)(Cl)C(O)C1(Cl)Cl (stereo unspecified)
GHS category: 4

CCCCc1oc2ccc([N+](=O)[O-])cc2c1C(=O)c1ccc(O)cc1
GHS category: 5

Cc1cnc(C2=NC(=O)C(C)(C(C)C)N2)c(C(=O)O)c1 (stereo unspecified)
GHS category: 5

COc1cccc(N(C)C(=S)Oc2ccc3c(c2)CCCC3)n1
GHS category: 5

CC(=O)Nc1cc(NS(=O)(=O)C(F)(F)F)c(C)cc1C
GHS category: 5

CCCCCCCCCCCCCC(=O)OC(C)C
GHS category: 5

Nc1nc(C2CC2)nc(C(=O)O)c1Cl
GHS category: 5

CCC(C)n1ncn(-c2ccc(N3CCN(c4ccc(O)cc4)CC3)cc2)c1=O (stereo unspecified)
GHS category: 5

CC(=O)NCc1c(I)c(NC(C)=O)c(I)c(C(=O)O)c1I
GHS category: 5

CC1Oc2cc(C(=O)C=Cc3ccc(O)cc3)ccc2N(C)C1=O (stereo unspecified)
GHS category: 5

CCCCCC(=O)CC
GHS category: 5

CCCCCCBr
GHS category: 5

O=C1c2c(Cl)c(Cl)c(Cl)c(Cl)c2C(=O)C1c1ccc2cccc(N3C(=O)c4c(Cl)c(Cl)c(Cl)c(Cl)c4C3=O)c2n1
GHS category: 5

CCCCCCCCC(=O)NO
GHS category: 5

CC(C)(O/N=C(\C(=O)N[C@@H]1C(=O)N2C(C(=O)[O-])=C(C[n+]3ccccc3)CS[C@H]12)c1csc(N)n1)C(=O)O
GHS category: 5

CNC(=O)c1c(I)c(NC(=O)CCCCC(=O)Nc2c(I)c(C(=O)O)c(I)c(C(=O)NC)c2I)c(I)c(C(=O)O)c1I
GHS category: 5

Nc1ccc2c(c1)C(=O)c1ccccc1C2=O
GHS category: 5

O=C1OC(=O)c2c(Br)c(Br)c(Br)c(Br)c21
GHS category: 5

CC1CCCCC1
GHS category: 5

CCCCCCCCCCCCN1CCCCCC1=O
GHS category: 5

CC1(C)C=C(n2ccccc2=O)c2cc(C#N)ccc2C1=O
GHS category: 3

CC(=O)O[C@]1(C(C)=O)CC[C@H]2[C@@H]3C[C@H](C)C4=CC(=O)CC[C@]4(C)[C@H]3CC[C@@]21C
GHS category: 5

CC1(c2ccc(Oc3ccccc3)cc2)OC(=O)N(Nc2ccccc2)C1=O (stereo unspecified)
GHS category: 5

CCCc1c(Cc2ccc(-c3ccccc3-c3nn[nH]n3)cc2)c(=O)nc2nc[nH]n12
GHS category: 4

O=C1NC(=O)C(c2ccc(O)cc2)(c2ccc(O)cc2)N1
GHS category: 5

CNC(=O)Oc1cccc2c1OC(C)O2 (stereo unspecified)
GHS category: 3

COc1cc(OC)nc(N=C(O)NS(=O)(=O)c2c(Cl)nc3ccccn23)n1
GHS category: 5

CC1CCN(c2nc3cc(Cl)ccc3o2)CCN1 (stereo unspecified)
GHS category: 4

COc1ccc(C2c3ccc(OC)cc3CCN2c2ccccc2)cc1 (stereo unspecified)
GHS category: 4

CC1C(C)(C)C2CCc3cncnc3C2C1(C)C (stereo unspecified)
GHS category: 4

CC1COc2ccccc2N1C(=O)C(Cl)Cl (stereo unspecified)
GHS category: 5

CC(C)CC(=O)O[C@@H]1C[C@@H]2CC[C@@]1(C)C2(C)C (racemic)
GHS category: 5

CC(O)CCl (stereo unspecified)
GHS category: 3

N[C@@H](CC(=O)O)C(=O)O
GHS category: 5

CC1(C)[C@H](C(=O)O[C@H](C#N)c2cccc(Oc3ccccc3)c2)[C@@H]1/C=C\C(=O)OC(C(F)(F)F)C(F)(F)F
GHS category: 5

CC(C)(C)C1CCC(OC(=O)OOC(=O)OC2CCC(C(C)(C)C)CC2)CC1 (stereo unspecified)
GHS category: 5

CCC=CCCCCCCCC(=O)OC
GHS category: 5

CC=Cc1ccc(OCCCCC)c(OC)c1
GHS category: 5

C[C@H]1[C@H](NC(=O)C(=NOC(C)(C)C(=O)O)c2csc(N)n2)C(=O)N1S(=O)(=O)O
GHS category: 5

CCOc1cc(NCCCN(C)C)c(=O)n(-c2ccccc2)n1
GHS category: 5

CCCCNC(=O)c1cnc2cccc(C)n2c1=O
GHS category: 3

COc1c(O)cc2c(c1O)C1OC(CO)C(O)C(O)C1OC2=O (stereo unspecified)
GHS category: 5

C=CCCCCCCCC(=O)N(C)C
GHS category: 4

CCCCC1OC(C)CC(C)(C)O1 (stereo unspecified)
GHS category: 5

COc1cc(C=CC(=O)CC(=O)C=Cc2ccc(O)c(OC)c2)ccc1O
GHS category: 5

CCCOc1nn(-c2cccc(C(F)(F)F)c2)c2ncccc12
GHS category: 4

CCN(C)CCC(C#N)(CC=C(C)C)c1cccc2ccccc12 (stereo unspecified)
GHS category: 4

CC=CC=CCOC(=O)CCC
GHS category: 5

Fc1ccccc1C1c2ccccc2CCN1c1cccc(C(F)(F)F)c1 (stereo unspecified)
GHS category: 4

NC(=O)NCCO
GHS category: 5

ClC1C(Br)C(Br)C(Br)C(Br)C1Br (stereo unspecified)
GHS category: 5

CC(=O)Nc1ccc(S(=O)(=O)Cl)cc1
GHS category: 5

Nc1ccc(OS(=O)(=O)O)c(C(=O)O)c1
GHS category: 5

CC(C)c1ccc(C(C)(C)C(C)(C)c2ccc(C(C)C)cc2)cc1
GHS category: 5

COc1ccc2[nH]c(C)c(CC(=O)OCC(=O)O)c2c1
GHS category: 5

Nc1c(I)c(C(=O)Cl)c(I)c(C(=O)Cl)c1I
GHS category: 5

COc1ccc(N(CCCC(=O)O)C(=O)c2ccc(Cl)cc2)c(OC)c1
GHS category: 4

CCCC(=O)Nc1ccc(Cc2ccccn2)c([N+](=O)[O-])c1
GHS category: 4

COC(=O)N(OC)c1ccccc1COc1ccn(-c2ccc(Cl)cc2)n1
GHS category: 5

COc1cc([N+](=O)[O-])ccc1N=NC(C(C)=O)C(=O)Nc1ccccc1OC (stereo unspecified)
GHS category: 5

CN[C@@H]1[C@@H](O)[C@@H](O[C@@H]2[C@@H](O)[C@H](OC3OC(CN)=CCC3N)[C@@H](N)C[C@H]2N)OC[C@]1(C)O (stereo partly specified)
GHS category: 5

CS(=O)(=O)c1ccc(C(=O)C2C(=O)CCCC2=O)c(Cl)c1COCC(F)(F)F
GHS category: 5

CC(C)=CCCC(C)(C)O
GHS category: 5

CC(C)C1=CC23CCC4C(C)(C(=O)N5CCN(CCO)CC5)CCCC4(C)C2CC1C1C(=O)OC(=O)C13 (stereo unspecified)
GHS category: 5

CO[Si](CC(C)CC(C)(C)C)(OC)OC (stereo unspecified)
GHS category: 5

O=C(CSCCO)NCCCOc1cccc(CN2CCCCC2)c1
GHS category: 5

CC1OC(Cn2cncn2)(c2cc3cc(Cl)cc(Cl)c3o2)OC1C (stereo unspecified)
GHS category: 4

COc1nn(C(=O)NS(=O)(=O)c2ccccc2OC(F)(F)F)c(=O)n1C
GHS category: 5

Cc1cc(C)c(C(=O)P(=O)(c2ccccc2)c2ccccc2)c(C)c1
GHS category: 5

COC(=O)C(C)O (stereo unspecified)
GHS category: 5

CCOC(=O)C(=O)Nc1cc(SCCOC)ncn1
GHS category: 4

CCCCCCCCCCCC(=O)OC1CC(C)(C)NC(C)(C)C1
GHS category: 5
